What was measured:
Assay type in all cases: cell-based
[1] = tested on: Interferon-α; test: Induction of Interferon-α using cryopreserved human PBMCs; details: PBMC, 24 h, 24 h incubation, normalised to 1 uM resiquimod and DMSO, read-out: mean pEC50 (induction of Interferon-α) (converted)
Procedure: Assay for the Induction of Interferon-α Using Cryopreserved Human Peripheral Blood Mononuclear Cells (PBMCs)
Compounds were dissolved in DMSO. Serial 2-fold dilutions with DMSO were prepared and 0.25 μl dispensed into 384-well clear Greiner polypropylene plates.
Blood samples of up to 200 ml were obtained from healthy human donors. Whole blood in 25 ml volumes was overlaid onto 15 ml Ficoll gradients in Leucosep tubes, and centrifuged at 1000 g for 20 min. Cells in the band at the plasma/histopaque interface were carefully removed and washed twice with PBS (centrifuged at 400 g for 5 min to harvest). The final pellet was resuspended in freezing medium (90% Heat-inactivated serum, 10% DMSO) to a cell concentration of 4×10^7 cells/ml. The resuspended cells were then cryopreserved (frozen) using a rate controlled freezer, and stored at −140° C. for up to 4 months.
Incubation and Assay for Interferon-α
Immediately prior to assay, vials of cryopreserved (frozen) PBMCs were thawed rapidly in a water bath at 37° C. A 1:10 dilution of the cells in trypan blue was prepared and counted. The PBMCs were then diluted in growth media [RPMI 1640 containing 10% fetal calf serum (invitrogen), Penicillin+[…] (Gibco cat. #25030-024, 1:50), L-Glutamine 2 mM, and 1000 units/ml recombinant human IFN-gamma (Preprotech catalogue #300-02)] to a density of 1×10^6 cells/ml, and 50 ul/well dispensed to 384-well clear Greiner polypropylene plates containing 0.25 μl DMSO or test compound in 0.25 μl DMSO. […] Plates were incubated for 24 h at 37° C. in 5% CO2.
A multi-isoform immunoassay was used to quantify IFN-α in PBMC supernatants. Rabbit polyclonal antibody against human IFN-α (catalogue number 31101, Stratech Scientific) was diluted 1:10000 in assay buffer (RPMI 1640 containing 10% fetal calf serum, Invitrogen) and 20 μl was added to each well of an MSD (Meso-Scale Discovery) single small-spot 384-well GAR (goat anti-rabbit antibody coated) plate. The plate was incubated for 1 h at room temperature with vigorous shaking. Following three washes with PBS, 20 μl of cell supernatant were added to each well of the plate. The plate was then incubated for 1 h at room temperature with vigorous shaking. A pair of monoclonal antibodies to IFN-α (catalogue numbers 21100 and 21112, Stratech Scientific) were labelled with sulfo-TAG (MSD), diluted 1:1000 in assay buffer and 20 μl added to each well of the plate. The plate was further incubated for 1 h at room temperature with vigorous shaking. Following three washes with PBS, 30 μl of ×2 T buffer (MSD) was added to each well and the plate was read on an MSD Sector 6000 plate reader.
Data were normalised to internal plate controls of 1 uM resiquimod (n=16) and DMSO (n=16). pEC50 values were derived by 4-parameter curve fit with IRLS in ActivityBase, from 11-point, two-fold serial dilution of test compounds.

[2] = tested on: Interferon-α; test: Induction of Interferon-α using fresh human PBMCs; details: PBMC, two donors, 24 hr incubation, percentage of 2 μM resiquimod control, read-out: mean pEC50 for induction of IFN-α (converted)
Procedure: (§1) Assay for the Induction of Interferon-α and TNF-α Using Fresh Human Peripheral Blood Mononuclear Cells (PBMCs)
(§2) Compounds were dissolved and serially diluted in DMSO to give 100× the required concentration range using a Biomek 2000. 1 ul of test compound was transferred into 96-well tissue culture plates using a Biomek FX. Each compound was assayed in duplicate for each donor. Each plate contained a dilution series of the TLR7/8 agonist resiquimod as standard and Column 11 contained 1 μl of 200 μM resiquimod (giving a 2 μM final concentration, used to define the approximate maximal response to resiquimod).
(§3) Blood samples from two human donors were collected into sodium heparin (10 U/ml). 25 ml volumes of whole blood were overlaid onto 15 mls Histopaque in Leucosep tubes which were centrifuged at 800 g for 20 min and the band at the plasma/histopaque interface carefully removed. The collected cells were centrifuged at 2500 rpm for 10 min and the pellet resuspended in 10 ml of media (RPMI 1640 (Low endotoxin) supplemented with 10% v/v foetal calf serum (FCS, low endotoxin) 100 U/ml penicillin G, 100 μg/ml streptomycin, 10 mM L-glutamine and 1× non-essential amino acids). A 1:20 dilution of the cells was prepared using trypan blue & the cells counted using a haemocytometer. The PBMCs were diluted to give a final concentration of 2×10^6/ml and 100 ul of this cells suspension was added to wells containing 1 μl of diluted test compound.
(§4) Incubation and Assays for Interferon-α and TNF-α
(§5) The cell preparations were incubated for 24 hr (37° C., 95% air, 5% CO2) after which a sample of the supernatant was removed using the Biomek FX and assayed for both IFN-α and TNF-α using the MSD (Mesoscale Discovery) electrochemiluminescence assay platform. The IFN-α assay was carried out similarly to that described above. The TNF-α assay was carried out as per kit instructions (Cat No K111BHB).
(§6) Cytokine released was expressed as a percentage of the 2 μM resiquimod control (column 11). This percentage was plotted against compound concentration and the pEC50 for the response determined by non-linear least squares curve fitting. For the IFN-α responses generally a 4 parameter logistic model was selected. For the TNF responses where a clear maximum response was obtained (i.e. a well defined plateau in the response was observed) then a 4 parameter model was generally used. If the upper asymptote of the curve wasn't well defined then the curve fitting was generally constrained to a maximal response of 100% (i.e. to the response to 2 μM resiquimod) or to the response of the highest concentration tested if this was greater than the resiquimod response. Some curves were bell shaped for one or both cytokines and the cytokine data on the down slope of the bell shaped response (i.e. concentrations above those giving the maximal response) were generally excluded from the fit, usually with the exception of the concentration immediately above the peak response. Curve fitting thus concentrated on the up slope of the dose response curve.

[3] = tested on: TNF-α; test: Induction of TNF-α using fresh human PBMCs; details: PBMC, two donors, 24 hr incubation, percentage of 2 μM resiquimod control, read-out: mean pEC50 for induction of TNF-α (converted)
Procedure: as §1, §2, §3, §4, §5, §6

| EC50 [2] [µM] | EC50 [3] [µM] | Compound | EC50 [1] [µM] |
| --- | --- | --- | --- |
|  |  | CCCCOc1nc(N)c2[nH]c(=O)n(CCCNCCC3CCCOC3)c2n1 (centres unmarked) [Example 10, 6-Amino-2-(butyloxy)-9-(3-{[2-(tetrahydro-2H-pyran-3-yl)ethyl]amino}propyl)-7,9-dihydro-8H-purin-8-one] | < 10 |
| < 0.1 | > 1 | CCC[C@H](C)Oc1nc(N)c2[nH]c(=O)n(CCCNCC3CCOCC3)c2n1 [Example 14, 6-Amino-2-{[(1S)-1-methylbutyl]oxy}-9-{3-[(tetrahydro-2H-pyran-4-ylmethyl)amino]propyl}-7,9-dihydro-8H-purin-8-one] | < 10 |
|  |  | CCCCOc1nc(N)c2[nH]c(=O)n(CCCN[C@H]3CCCO3)c2n1 [Example 1, 6-Amino-2-(butyloxy)-9-{3-[(2R)-tetrahydro-2-furanylamino]propyl}-7,9-dihydro-8H-purin-8-one] | < 10 |
|  |  | CCCCOc1nc(N)c2[nH]c(=O)n(CCCNCC3CCCCO3)c2n1 (centres unmarked) [Example 6, 6-Amino-2-(butyloxy)-9-{3-[(tetrahydro-2H-pyran-2-ylmethyl)amino]propyl}-7,9-dihydro-8H-purin-8-one] | < 10 |
| < 0.1 | > 1 | CCC[C@H](C)Oc1nc(N)c2[nH]c(=O)n(CCCNCC3CCCO3)c2n1 (stereo partly drawn) [Example 12, 6-Amino-2-{[(1S)-1-methylbutyl]oxy}-9-{3-[(tetrahydro-2-furanylmethyl)amino]propyl}-7,9-dihydro-8H-purin-8-one] |  |
| < 1 | > 10 | CCCCOc1nc(N)c2[nH]c(=O)n(CCCNCC3CCCO3)c2n1 (centres unmarked) [Example 3, 6-Amino-2-(butyloxy)-9-{3-[(tetrahydro-2-furanylmethyl)amino]propyl}-7,9-dihydro-8H-purin-8-one] | < 10 |
|  |  | CCCCOc1nc(N)c2[nH]c(=O)n(CCCNCCC3CCOCC3)c2n1 [Example 11, 6-Amino-2-(butyloxy)-9-(3-{[2-(tetrahydro-2H-pyran-4-yl)ethyl]amino}propyl)-7,9-dihydro-8H-purin-8-one] | < 10 |
| < 0.1 | > 1 | CCC[C@H](C)Oc1nc(N)c2[nH]c(=O)n(CCCNCCC3CCCO3)c2n1 (stereo partly drawn) [Example 13, 6-Amino-2-{[(1S)-1-methylbutyl]oxy}-9-(3-{[2-(tetrahydro-2-furanyl)ethyl]amino}propyl)-7,9-dihydro-8H-purin-8-one] |  |
| < 1 | > 10 | CCCCOc1nc(N)c2[nH]c(=O)n(CCCNCCC3CCCO3)c2n1 (centres unmarked) [Example 5, 6-Amino-2-(butyloxy)-9-(3-{[2-(tetrahydro-2-furanyl)ethyl]amino}propyl)-7,9-dihydro-8H-purin-8-one] | < 10 |
|  |  | CCCCNc1nc(N)c2[nH]c(=O)n(CCCNCC3CCOCC3)c2n1 [Example 17, 6-Amino-2-(butylamino)-9-{3-[(tetrahydro-2H-pyran-4-ylmethyl)amino]propyl}-7,9-dihydro-8H-purin-8-one] | < 10 |
|  |  | CCCCOc1nc(N)c2[nH]c(=O)n(CCCN[C@@H]3CCCO3)c2n1 [Example 2, 6-Amino-2-(butyloxy)-9-{3-[(2S)-tetrahydro-2-furanylamino]propyl}-7,9-dihydro-8H-purin-8-one] | < 10 |
|  |  | CCCCOc1nc(N)c2[nH]c(=O)n(CCCNCC3CCOC3)c2n1 (centres unmarked) [Example 4, 6-Amino-2-(butyloxy)-9-{3-[(tetrahydro-3-furanylmethyl)amino]propyl}-7,9-dihydro-8H-purin-8-one] | < 10 |
| < 1 | > 10 | CCCCOc1nc(N)c2[nH]c(=O)n(CCCNCC3CCOCC3)c2n1 [Example 8, 6-Amino-2-(butyloxy)-9-{3-[(tetrahydro-2H-pyran-4-ylmethyl)amino]propyl}-7,9-dihydro-8H-purin-8-one] | < 10 |
|  |  | CCCCNc1nc(N)c2[nH]c(=O)n(CCCNCCC3CCCCO3)c2n1 (centres unmarked) [Example 18, 6-Amino-2-(butylamino)-9-(3-{[2-(tetrahydro-2H-pyran-2-yl)ethyl]amino}propyl)-7,9-dihydro-8H-purin-8-one] | < 10 |
|  |  | CCCCOc1nc(N)c2[nH]c(=O)n(CCCNCC3CCCOC3)c2n1 (centres unmarked) [Example 7, 6-Amino-2-(butyloxy)-9-{3-[(tetrahydro-2H-pyran-3-ylmethyl)amino]propyl}-7,9-dihydro-8H-purin-8-one] | < 10 |
| < 1 | > 10 | CCCCNc1nc(N)c2[nH]c(=O)n(CCCNCCC3CCCO3)c2n1 (centres unmarked) [Example 16, 6-Amino-2-(butylamino)-9-(3-{[2-(tetrahydro-2-furanyl)ethyl]amino}propyl)-7,9-dihydro-8H-purin-8-one] | < 10 |
| < 1 | > 10 | CCCCOc1nc(N)c2[nH]c(=O)n(CCCNCCC3CCCCO3)c2n1 (centres unmarked) [Example 9, 6-Amino-2-(butyloxy)-9-(3-{[2-(tetrahydro-2H-pyran-2-yl)ethyl]amino}propyl)-7,9-dihydro-8H-purin-8-one] | < 10 |
|  |  | CCCCNc1nc(N)c2[nH]c(=O)n(CCCNCC3CCCO3)c2n1 (centres unmarked) [Example 15, 6-Amino-2-(butylamino)-9-{3-[(tetrahydro-2-furanylmethyl)amino]propyl}-7,9-dihydro-8H-purin-8-one] | < 10 |

— patent US8575181B2, “Purine derivatives for use in the treatment of allergic, inflammatory and infectious diseases” (GlaxoSmithKline LLC, priority 2008, dated 2013)
